Assay results from patent US20060089335A1, “Compositions and methods for enhancing cognitive function and synaptic plasticity” (priority 2003, published 2006).
Entries after “also recorded” stand apart in the source; their conditions may differ.

Tests used:
[1] = tested on: presynaptic terminals of cultured hippocampal neurons; test: TBS-induced presynaptic plasticity measured by FM 1-43 dye uptake in hippocampal cultures; type: cell-based, rat
[2] = target: NMDA receptors (NR2B-containing) (Rattus norvegicus, UniProt P35439+Q00960); test: evoked NMDA currents ([…]), double-perforated patch; type: cell-based
Chain of NMDA receptors (NR2B-containing) (Q00960 27-1482, other chains not shown): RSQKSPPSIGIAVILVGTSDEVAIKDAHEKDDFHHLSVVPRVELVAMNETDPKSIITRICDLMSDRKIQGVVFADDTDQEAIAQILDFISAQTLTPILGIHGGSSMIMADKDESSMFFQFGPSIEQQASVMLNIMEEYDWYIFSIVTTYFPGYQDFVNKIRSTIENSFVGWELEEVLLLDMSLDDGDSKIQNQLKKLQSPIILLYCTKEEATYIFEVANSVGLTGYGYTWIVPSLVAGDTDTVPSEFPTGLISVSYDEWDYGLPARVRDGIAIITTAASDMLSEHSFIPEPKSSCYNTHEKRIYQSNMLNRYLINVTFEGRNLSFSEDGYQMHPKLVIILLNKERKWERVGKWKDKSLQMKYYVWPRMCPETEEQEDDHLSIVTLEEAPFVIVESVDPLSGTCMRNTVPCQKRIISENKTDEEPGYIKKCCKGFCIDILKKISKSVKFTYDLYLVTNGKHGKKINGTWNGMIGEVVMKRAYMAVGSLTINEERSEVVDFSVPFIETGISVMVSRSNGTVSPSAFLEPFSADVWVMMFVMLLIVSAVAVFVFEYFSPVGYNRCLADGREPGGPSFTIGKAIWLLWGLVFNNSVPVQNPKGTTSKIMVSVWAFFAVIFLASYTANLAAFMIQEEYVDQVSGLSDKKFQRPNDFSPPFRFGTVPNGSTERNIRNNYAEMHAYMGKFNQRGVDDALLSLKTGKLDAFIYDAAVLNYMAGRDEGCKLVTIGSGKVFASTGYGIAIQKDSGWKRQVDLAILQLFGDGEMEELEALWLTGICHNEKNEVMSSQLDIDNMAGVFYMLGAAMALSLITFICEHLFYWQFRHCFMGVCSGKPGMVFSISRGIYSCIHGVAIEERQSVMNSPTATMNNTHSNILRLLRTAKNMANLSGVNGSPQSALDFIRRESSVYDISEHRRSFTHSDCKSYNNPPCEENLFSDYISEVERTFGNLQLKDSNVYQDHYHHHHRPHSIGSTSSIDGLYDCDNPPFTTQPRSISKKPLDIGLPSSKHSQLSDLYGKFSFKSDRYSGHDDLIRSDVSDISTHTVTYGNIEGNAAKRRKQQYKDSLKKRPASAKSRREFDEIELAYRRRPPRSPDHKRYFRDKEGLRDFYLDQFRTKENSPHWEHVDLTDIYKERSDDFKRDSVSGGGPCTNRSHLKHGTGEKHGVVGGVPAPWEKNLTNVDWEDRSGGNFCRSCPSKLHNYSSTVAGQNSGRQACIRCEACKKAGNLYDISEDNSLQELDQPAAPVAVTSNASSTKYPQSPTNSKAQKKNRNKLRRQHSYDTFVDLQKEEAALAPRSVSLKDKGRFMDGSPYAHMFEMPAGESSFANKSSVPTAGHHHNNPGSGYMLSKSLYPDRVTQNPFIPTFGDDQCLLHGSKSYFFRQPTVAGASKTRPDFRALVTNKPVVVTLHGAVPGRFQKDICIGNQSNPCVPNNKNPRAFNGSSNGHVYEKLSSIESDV
Method: Electrophysiology. Dual whole cell perforated patch clamp recordings were made on two interconnected cultured hippocampal pyramidal neurons. Perforated patch pipettes were front-filled with a solution containing (in mM): CsOH, 127; D-gluconic acid, 127; CsCl, 4; HEPES, 10; NaCl, 8; EGTA, 0.4; pH was adjusted to 7.25 with CsOH, and then back-filled with the same solution containing […] amphotericin B (Sigma, St. Louis, Mo.). Extracellular solution contained (in mM): NaCl, 145; KCl, 3; glucose, 15; HEPES, 10; MgCl2, 0.8-1.2; CaCl2, 1.2; 0.005 glycine (Sigma), 0.05 picrotoxin (Sigma); pH adjusted to 7.4 with NaOH. MgCl2 concentration was matched to its concentration in culture medium. In experiments where effects of drugs on neuronal activity were quantified (FIG. 4D), recordings were done in culture medium (with HEPES replacing bicarbonate/CO2 to maintain pH). All experiments were performed at room temperature. For assaying synaptic connectivity, each neuron was stimulated by 1 ms step depolarization from −70 to +30 mV in voltage-clamp mode. Only neurons with monosynaptic connections were used. […] Recordings with access resistance>20 MΩ or that varied substantially were rejected from analysis.
We hypothesized that one target may be the number and properties of NMDA receptors at individual synapses.

GluR1 = test: quantitative Western blotting of hippocampal homogenate; type: in vivo, rat; conditions: baclofen 0.07 mg/kg/day in drinking water, 4 months; rats' hippocampus
Method: (§1) Quantitative Western blotting. Samples of hippocampal homogenate (10 ug/sample) were resolved on polyacrylamide gels, transferred to PVDF, and probed with anti-NR1 (Chemicon), NR2A (Upstate) or NR2B (Santa Cruz Biotech), GluR1 (Chemicon), Synapsin1 (American Qualex), or PSD-95 (Upstate) antibody followed by the appropriate secondary antibody coupled to horseradish peroxidase (1:10,000, Santa Cruz Biotech) in Tris-buffered saline (pH 7.3) containing 5% dry milk and 0.1% Tween (BioRad). Visualization of immunoreactive bands was achieved by enhanced chemiluminescence (Perkin Elmer Biosciences) and captured on autoradiography film (Kodak Scientific). Standard curves, in which the amount of protein was varied systematically, were constructed to establish that we operated within the linear range of the chemiluminescence detection method. In addition, each immunoblot was exposed to autoradiography film multiple times (average 7; minimum 5) for varying duration to make sure we operated in the linear range of the film for each experiment. Digital images, produced by scanning films on a Epson 3200 Scanner (Epson) with Epson Scan Software (Epson), were quantified using GelPro Analyzer 3.1 software. The integrated optical density (IOD) of each immunoreactive band from hippocampal samples relative to baseline measured immediately above and below the band in the same lane, and normalized by the actin or neurofilament band also in the same lane. Group data (eight animals per group) are represented as the mean+/−SEM of the IOD of samples.

NR2B = test: as above; type: in vivo, rat
Method: as §1

[3] = tested on: excitatory and inhibitory terminals; conditions: short treatment (2-24 hr)
[4] = general status of treated rats; conditions: chronic treatment in drinking water, 4 months

NCC(CC(=O)O)c1ccc(Cl)cc1 (stereo not shown) [baclofen, 4-amino-3-(4-chlorophenyl) butanoic acid]
effect of theta-burst induction in treated cultures ([1]; 4-6 hours treatment, baclofen 20 μm, NBQX 1 μm, flunitrazepam 5 μm): Both the number of functional synapses and the probability of release increased | plasticity of presynaptic terminals (S2/S1) ([1]; baclofen 10 μM, short term (4-6 hours) and long term (48 hours)): induced enhancement of plasticity for both short term (4-6 hours) and long term (48 hours) periods of time; also recorded: enhances plasticity of presynaptic terminals | τdecay of EPSCNMDA, representative trace ([2]; baclofen-treated neurons, FIG. 7A): 200 ms | τdecay of EPSCNMDA, average ([2]; baclofen-treated neurons, N=6): 176 ± 30 ms | ifenprodil-sensitivity of EPSCNMDA in treated versus control cultures ([2]; ifenprodil 3 μM, baclofen 10 μM 6 hours or 1.2 mM Mg): triggered increased sensitivity of the EPSCNMDA to ifenprodil; also recorded: more sensitive to ifenprodil; also recorded: increases the sensitivity of EPSCNMDA to ifenprodil | GLUR1 expression level (GluR1): significant enhancement; also recorded: increases expression level | NR2B expression level (NR2B; baclofen 0.07 mg/kg/day in drinking water, 4 months, rats' hippocampus): significant enhancement; also recorded: increases expression level | increase in levels of NR2B protein (NR2B; baclofen treatment (FIG. 10)): approximately 60% | change of synaptic density [3]: No short treatment (2-24 hr, baclofen, nimodepine, NBQX, and TTX) produced a significant change of synaptic density | general status of the rats (body weight, mobility) [4]: did not observe any significant change in the general status
